Biological target: not listed separately
Assay: Binding affinity to alpha-2delta calcium channel
For `CCCC(CCC)CC(CN)c1nnn[nH]1` (stereo not given), the Ki was 280 nM.
Work on `NCCc1nnn[nH]1` yielded a Ki greater than 10000 nM.
Compound `NCC(c1ccccc1)c1nnn[nH]1` (stereo not given) has a Ki greater than 10000 nM.
With `CC(C)C(CN)c1nnn[nH]1` (stereo not given) the Ki was 130 nM.
For `CC(C)CCC(CN)c1nnn[nH]1` (stereo not given), the Ki was 210 nM.
With `NCC(CCCCc1ccccc1)c1nnn[nH]1` (stereo not given) the Ki was 130 nM.
Compound `CC(C)(CN)c1nnn[nH]1` has a Ki greater than 10000 nM.
In the case of `NCC(Cc1ccccc1)(Cc1ccccc1)c1nnn[nH]1`, the Ki is reported as greater than 10000 nM.
For `CC(CN)(Cc1ccccc1)c1nnn[nH]1` (stereo not given), the Ki was 900 nM.
`NCC(CCCCCc1ccccc1)c1nnn[nH]1` (stereo not given) gave a Ki of 500 nM.
Compound `CC(CN)(Cc1cccc(C(F)(F)F)c1)c1nnn[nH]1` (stereo not given) has a Ki of 160 nM.
`NCC(CCc1ccccc1)c1nnn[nH]1` (stereo not given) showed a Ki of 3100 nM.
Compound `NCC(CC1CCCCC1)c1nnn[nH]1` (stereo not given) has a Ki of 570 nM.
`CC(C)C1CC1(CN)c1nnn[nH]1` (stereo not given) gave a Ki of 190 nM.
`CCCCCCC(CN)c1nnn[nH]1` (stereo not given) showed a Ki of 330 nM.
`CCC(CC)C1CC1(CN)c1nnn[nH]1` (stereo not given) showed a Ki of 4000 nM.
For `NCC1(c2nnn[nH]2)CC12CCCCC2` (stereo not given), the Ki was 33 nM.
`NCC(c1nnn[nH]1)C1CCCCC1` (stereo not given) showed a Ki of 150 nM.
Compound `NCC(Cc1ccccc1)c1nnn[nH]1` (stereo not given) has a Ki of 7600 nM.
With `NCC(CCCc1ccccc1)c1nnn[nH]1` (stereo not given) the Ki was 2100 nM.
`CC(CN)(Cc1ccc(F)c(F)c1)c1nnn[nH]1` (stereo not given) gave a Ki of 520 nM.
`CCC(CC)CC(CN)c1nnn[nH]1` (stereo not given) showed a Ki of 11 nM.
For `NCC(c1nnn[nH]1)C1CCCC1` (stereo not given), the Ki was 18 nM.
In the case of `CC(C)CC(CN)c1nnn[nH]1` (stereo not given), the Ki is reported as 17 nM.

Test system: Mus musculus
Assay: Protection of DBA/2 mouse against audiogenic-induced tonic seizure at 30 mg/kg, po after 1 hr
Type: functional
In the case of `CCC(CC)CC(CN)c1nnn[nH]1` (stereo not given), the Activity is reported as 60%.
For `CC(C)CC(CN)c1nnn[nH]1` (stereo not given), the Activity was 40%.
For `CC(C)C[C@H](CN)CC(=O)O` [PREGABALIN], the Activity was 100%.

Test system: Mus musculus
Assay: Protection of DBA/2 mouse against audiogenic-induced tonic seizure at 30 mg/kg, po after 2 hrs
Type: functional
Compound `CCC(CC)CC(CN)c1nnn[nH]1` (stereo not given) has an Activity of 100%.
For `CC(C)CC(CN)c1nnn[nH]1` (stereo not given), the Activity was 80%.
For `CC(C)C[C@H](CN)CC(=O)O` [PREGABALIN], the Activity was 100%.

Reference: ChEMBL document CHEMBL1138898 (Bioorg Med Chem Lett, 2006)
